Assay [1] is described as follows: KM-34 capacity to reduce DPPH radicals. The assay is classed as biochemical. The note with it: DPPH 100 μM, 30 minutes of reaction; read-out: IC50, reduction of DPPH radicals. The protocol:
FIG. 1. Percentage reduction of DPPH (100 μM) by KM-34 (5-400 μM) was determined by changing in the absorbance at 550 nm from a target containing only DPPH and vehicle (zero concentration of KM −34 or AA), after 30 minutes of reaction. Values are expressed as the mean ± SD (n=3). *P<0.05 with respect to the vehicle.
One of the most commonly used methods to estimate antioxidant activity is to evaluate the ability of different compounds to reduce DPPH radicals, which can be determined spectrophotometrically (Brand-Williams et al., 1995). […] Electron delocalization causes the intense violet coloration of the DPPH radical form when it is prepared in ethanol solution (Molyneux et al., 2004).
The IC 50 value obtained for KM was approximately 2.4 times lower than that obtained for ascorbic acid (AA) used as the reference compound.
On the technique in general: The DPPH test is a chemical assay of radical scavenging.

For assay [2], the system named is transient occlusion of the common carotid arteries. The experiment in a line: Vascular dementia model (transient occlusion of common carotid arteries), Morris maze. The note with it: JM-20 4 mg/kg p.o., 1 hour after reperfusion and all days of the test; vs animals without treatment. The assay is classed as in vivo, male Swiss albino mice. The protocol: As a model of vascular dementia, the animals (male Swiss albino mice) underwent transient occlusion of the common carotid arteries for 20 minutes and cognitive impairment was evaluated through the Morris labyrinthine assay. […] As a model of permanent cortical ischemia, thermo-coagulation of the pials arteries was induced and the percentage of asymmetry was quantified.

Two compounds from patent US10722491B2, “Phenol compound and combination of same with a benzodiazepine fused to 1,4-dihydropyridine for treating diseases of the central nervous and vascular systems” (UNIVERSIDAD DE LA HABANA, priority 2016, dated 2020) can be followed below.

As usually defined, the IC50 is the concentration needed to halve the response being measured. As to `O=C1O[C@H]([C@@H](O)CO)C(O)=C1O` [AA, ascorbic acid, reference compound], the IC50 in assay [1] was 38.7 µM. `CCOC(=O)C1=C(C)NC2=C(C=Nc3ccccc3N2)C1c1ccccc1[N+](=O)[O-]` (centres unmarked) [JM-20, 3-ethoxycarbonyl-2-methyl-4-(2-nitrophenyl)-4,11-dihydro-1H-pyrido[2,3-b][1,5]benzodiazepine]: the “Escape latency time, Morris maze” value in assay [2] is “significantly (p<0.05)”.
